Data set [1] is described as follows: Oxygen saturation (SpO2) in clinical trial subjects with low oxygen saturation, pre-dose vs 4 hrs after a single dose. It counts as in vivo, human. An excerpt: The present inventors have used data available for patients participating in clinical trials to determine whether LMT enhances oxygen saturation of blood. Data were available for 18 subjects with oxygen saturation <94% at baseline (lower limit of normal range is
These patients recorded a variety of respiratory or other conditions of various degrees of severity which it was suspected may have contributed to the detected hypoxemia, including sleep apnoea, insomnia (which may be indicative of Paroxysmal nocturnal dyspnea or paroxysmal nocturnal dyspnoea), asbestosis, oedema, asthma, bronchitis, allergies, angioedema, pneumonia, acute myocardial infarction/ hypertension, Coronary artery disease with angioplasty and stent insertion, transient ischaemic attacks (TIA), hypothyroidism, diabetes, syncope, tachycardia and sepsis. […]

In the next data set the test system is metHb. Kind of data set: metHb levels in clinical trial subjects receiving LMTM. It counts as in vivo, human. The source says: In order to understand this effect further the inventors investigated whether the low oxygen saturation in these patients is due to elevation in metHb levels. There was no difference in metHb levels at baseline between subjects with low SpO2 and those with SpO2 levels in the normal range.
Therefore, LMTM is able to act on haemoglobin over a range of doses in such a way as to enhance oxygen saturation in the blood by a novel mechanism unrelated to its known effects on metHb.

The mark [2] stands for this setting: LMT at high concentrations, oral doses in the range 150-250 mg/day.

With `CN(C)c1ccc2c(c1)Sc1cc(N(C)C)ccc1N2` [LMT], in data set [1] (setting [2]), the SpO2 levels entry was “increase SpO2 levels”. Further, the metHb levels entry in the data set on metHb (setting [2]) was “measurable increase”.
Turning to `CN(C)c1ccc2c(c1)Sc1cc(N(C)C)ccc1N2` [LMTM, leuco-methylthioninium bis(hydromethanesulfonate)], the “oxygen saturation at 4 hours” value in data set [1] (single dose of LMT at 4 mg and ~100 mg (mean of 75, 100, 125 mg), 18 subjects with oxygen saturation <94% at baseline, pre-dose vs 4 hrs post-dose) was “significantly increased”. Also, the metHb levels entry in the data set on metHb (LMTM at higher doses / high dosages over a period of time, FIG. 3) is recorded as “systematically increases”.
